Laboratory results taken from publication PMC10011554, “BET inhibitor trotabresib in heavily pretreated patients with solid tumors and diffuse large B-cell lymphomas” (Nature Communications, 2023).
Where two headings read alike, the source gives them in different places.

Assays:
[1] = test system: GLI1 gene expression in MIA-PaCa-2 pancreatic adenocarcinoma cells; parameters: method as in Investigator's Brochure; conditions: MIA-PaCa-2 cells, ref Investigator's Brochure; read-out: IC50, inhibition of GLI1 gene expression; cited from earlier work
TMD8 (ABC DLBCL) = test system: TMD8 (ABC DLBCL); parameters: method as in Report CC-90010-Pharm-1018; conditions: TMD8, Experiment 1, ref Report CC-90010-Pharm-1018; read-out: absolute IC50, proliferation; cited from earlier work
CYP2C9 = test system: CYP2C9; parameters: method as in Investigator's Brochure; conditions: CYP2C9, ref Investigator's Brochure; read-out: IC50, direct inhibition; cited from earlier work
[2] = Clinical plasma and CSF pharmacokinetics, part A; type: in vivo; conditions: human
Method: Protocol CC-90010-ST-001 Celgene Corporation
Following oral administration of CC-90010, geometric mean peak exposure to CC-90010, based on Cmax, increased with dose on Day 1 (single dose) and after last dose (repeated dosing), in a manner approximately proportional with dose. Across all dose levels and both sampling occasions, Cmax was observed a few hours after dosing, with median tmax ranging from 1 to 2 hours postdose. The terminal elimination half-life, where estimated, was generally similar across the dose schedules, ranging from approximately 40 to 70 hours, after repeated dosing of […]
across the dose levels, after repeated dosing of CC-90010. There was evidence of accumulation after repeated dosing of CC-90010 for all dose schedules and dose levels, with accumulation […]
Between-subject variability across the dose levels ranged from 22.0% to 91.7% on Day 1 based […]
Cerebrospinal fluid samples were collected for one subject, who had quantifiable cerebrospinal fluid concentrations of CC-90010, with an average time matched CSF/plasma ratio of 6.6%.
1.4. Safety Monitoring Plan […]
(1 picture or pasted object on this page, not shown here)
The provisional CC-90010 dose levels (total doses within on cycle) are: 180 mg in Schedule 1, […]
220 mg in Schedule 4. It is however possible for some doses to be skipped or additional dose levels to be added during the course of the study, based on the emerging safety information.
After each cohort the posterior distributions for the probabilities of a DLT rates at different dose levels are obtained. The results of this analysis are summarized in terms of the estimated probabilities that the true rate of DLT at each dose-level will have of lying in each of the […]
• [0.16, 0.33) targeted toxicity
• [0.33, 1.00] excessive toxicity.
Following the principle of escalation with EWOC, after each cohort of subjects the recommended dose is the one with the highest posterior probability of the DLT rate falling in the target interval [16%, 33%) among the doses fulfilling EWOC, ie, it is unlikely (<25% posterior probability) that the DLT rate at the dose falls in the excessive toxicity interval.
Note that the dose that maximizes the posterior probability of targeted toxicity is the best estimate of the MTD, but it may not be an admissible dose according to the overdose criterion if the amount of data is insufficient. […]
Plasma PK parameters such as AUC0-24, C max, Tmax, t1/2, CL/F, and Vz/F of CC-90010 will be calculated by the noncompartmental analysis method from the plasma concentration-time profiles of CC-90010. Additional PK parameters including CSF to plasma concentration ratio of CC-90010, may be calculated, if data permits. […]

[3] = ref Investigator's Brochure, cited from earlier work
[4] = test system: TNBR3 TNBC PDX-derived model; parameters: method as in Investigator's Brochure; conditions: TNBR3, ref Investigator's Brochure; read-out: IC50, colony formation; cited from earlier work
WSU-DLCL2 (DOX-R) = test system: WSU-DLCL2 (DOX-R); parameters: method as in Report CC-90010-Pharm-1018; conditions: Table 2, ref Report CC-90010-Pharm-1018, read-out: absolute IC50, proliferation; cited from earlier work
[5] = test system: MYC expression in COH70 TNBC PDX tumor; parameters: method as in Investigator's Brochure; conditions: ref Investigator's Brochure, cited from earlier work
[6] = parameters: method as in PMID 32240793; conditions: part A preliminary results; cited from earlier work
[7] = test system: COH69 TNBC PDX-derived model; parameters: method as in Investigator's Brochure; conditions: COH69, ref Investigator's Brochure; read-out: IC50, colony formation; cited from earlier work
[8] = parameters: method as in Unpublished data from Celgene Corporation; conditions: after final dose, ref Unpublished data from Celgene Corporation, cited from earlier work
SU-DHL-4 (DOX-R) = test system: SU-DHL-4 (DOX-R); parameters: method as in Report CC-90010-Pharm-1018; conditions: Table 2, ref Report CC-90010-Pharm-1018, read-out: absolute IC50, proliferation; cited from earlier work
GBM15 GBM PDX = test system: GBM15 GBM PDX; parameters: method as in Unpublished data from Celgene Corporation; conditions: Day 29, ref Unpublished data from Celgene Corporation, cited from earlier work

Cn1cc(-c2cc(S(C)(=O)=O)ccc2OCC2CC2)c2ccccc2c1=O [trotabresib]
IC50 [1]: 240 nM
IC50 (TMD8 (ABC DLBCL)): 190 nM
IC50 (CYP2C9): ≥ 13900 nM
Kp ([2]; CSF, oral, one subject, read-out: average time matched CSF/plasma ratio): 0.066
Tmax ([2]; in vivo, part A, across all dose levels, Day 1 and last dose, read-out: median tmax): 1 to 2 h
Vd/F ([2]; in vivo, part A, across dose levels, after repeated dosing, read-out: Vss/F): 134 to 553 L
half-life ([2]; in vivo, part A, across dose schedules, after repeated dosing, read-out: terminal elimination half-life): 40 to 70 h
severely toxic dose ([3]; 4-week Beagle dog study): 7.50 mg base/kg/dose
cardiovascular and respiratory effects ([3]; conscious Beagle dogs): no CC-90010-related effects on electrocardiograms, heart rate
highest non-severely toxic dose (HNSTD) ([3]; dog, 3-days-on/4-days-off schedule): 3.75 mg base/kg/dose
mean exposure corresponding to the dog HNSTD [3]: 10000 ng·h/mL
IC50 [4]: 80 nM
IC50 (WSU-DLCL2 (DOX-R)): ~360 nM
maximal suppression of MYC expression ([5]; COH70, 2 mg/kg, at 2 hours): 51.3%
maximal suppression of MYC expression ([5]; COH70, 10 mg/kg, at 4 hours): 63.4%
oral bioavailability [6]: high oral bioavailability
t1/2 [6]: ~ 60 h
IC50 [7]: 70 nM
AUC0-24hr, steady state ([8]; 12.5 mg/kg): 12,003 ng·hr/mL
AUC0-24hr, steady state ([8]; 16 mg/kg): 15,174 ng·hr/mL
IC50 (SU-DHL-4 (DOX-R)): 899 nM
mean percent TGI (GBM15 GBM PDX; GBM15, 15 mg/kg/dose (5/2)): 65%
mean percent TGI (GBM15 GBM PDX; GBM15, 25 mg/kg/dose (3/4)): 65%
mean percent TGI (GBM15 GBM PDX; GBM15, 37.5 mg/kg/dose (2/5)): 70%
